The conditions of series [1]: anaerostipes sp., 12 h, 2 µM.
Description: The drug is tested on Anaerostipes sp. strain: fecal isolate for biotransformation. The drug concentrations were measured before and after a 12-h incubation by liquid-chromatography-coupled mass spectrometry (LC–MS)
A short description of series [2]: The drug is tested on Ruminococcus lactaris strain: ATCC29176 for biotransformation. The drug concentrations were measured before and after a 12-h incubation by liquid-chromatography-coupled mass spectrometry (LC–MS). The following applies: 2 µM.
Series [3] in a line: The drug is tested on Bifidobacterium longum subsp. Infantis strain: CCUG52486 for biotransformation. The drug concentrations were measured before and after a 12-h incubation by liquid-chromatography-coupled mass spectrometry (LC–MS). The conditions noted are these: 2 µM.
Series [4] in a line: The drug is tested on Collinsella aerofaciens strain: ATCC25986 for biotransformation. The drug concentrations were measured before and after a 12-h incubation by liquid-chromatography-coupled mass spectrometry (LC–MS). The following applies: 2 µM.
For series [5] the following is noted: parabacteroides johnsonii, 12 h, 2 µM.
Description: The drug is tested on Parabacteroides johnsonii strain: DSM18315 for biotransformation. The drug concentrations were measured before and after a 12-h incubation by liquid-chromatography-coupled mass spectrometry (LC–MS)
The nature of series [6]: The drug is tested on Parabacteroides merdae strain: ATCC43184 for biotransformation. The drug concentrations were measured before and after a 12-h incubation by liquid-chromatography-coupled mass spectrometry (LC–MS). The following applies: 2 µM.
For series [7] the following is noted: bacteroides intestinalis, 12 h, 2 µM.
Description: The drug is tested on Bacteroides intestinalis strain: DSM17393 for biotransformation. The drug concentrations were measured before and after a 12-h incubation by liquid-chromatography-coupled mass spectrometry (LC–MS)
For series [8] the following is noted: bacteroides thetaiotaomicron, 12 h, 2 µM.
Description: The drug is tested on Bacteroides thetaiotaomicron strain: VPI-5482 for biotransformation. The drug concentrations were measured before and after a 12-h incubation by liquid-chromatography-coupled mass spectrometry (LC–MS)
A short description of series [9]: The drug is tested on Dorea formicigenerans strain: ATCC27755 for biotransformation. The drug concentrations were measured before and after a 12-h incubation by liquid-chromatography-coupled mass spectrometry (LC–MS). The following applies: 2 µM.
For series [10] the following is noted: bifidobacterium adolescentis, 12 h, 2 µM.
Description: The drug is tested on Bifidobacterium adolescentis strain: ATCC 15703 for biotransformation. The drug concentrations were measured before and after a 12-h incubation by liquid-chromatography-coupled mass spectrometry (LC–MS)
Series [11] in a line: The drug is tested on Ruminococcus gnavus strain: ATCC29149 for biotransformation. The drug concentrations were measured before and after a 12-h incubation by liquid-chromatography-coupled mass spectrometry (LC–MS). The following applies: mediterraneibacter gnavus, 2 µM.
A short description of series [12]: The drug is tested on Bacteroides vulgatus strain: ATCC8482 for biotransformation. The drug concentrations were measured before and after a 12-h incubation by liquid-chromatography-coupled mass spectrometry (LC–MS). The conditions noted are these: phocaeicola vulgatus, 2 µM.
Series [13] can be described thus: The drug is tested on Clostridium sp. strain: fecal isolate for biotransformation. The drug concentrations were measured before and after a 12-h incubation by liquid-chromatography-coupled mass spectrometry (LC–MS). The following applies: 2 µM.
Series [14] in a line: The drug is tested on Bacteroides caccae strain: ATCC43185 for biotransformation. The drug concentrations were measured before and after a 12-h incubation by liquid-chromatography-coupled mass spectrometry (LC–MS). The conditions noted are these: 2 µM.
The nature of series [15]: The drug is tested on Bifidobacterium ruminantium strain: fecal isolate for biotransformation. The drug concentrations were measured before and after a 12-h incubation by liquid-chromatography-coupled mass spectrometry (LC–MS). The conditions noted are these: 2 µM.
The nature of series [16]: The drug is tested on Anaerotruncus colihominis strain: DSM17241 for biotransformation. The drug concentrations were measured before and after a 12-h incubation by liquid-chromatography-coupled mass spectrometry (LC–MS). The conditions noted are these: 2 µM.
Series [17] is described as follows: The drug is tested on Clostridium scindens strain: ATCC35704 for biotransformation. The drug concentrations were measured before and after a 12-h incubation by liquid-chromatography-coupled mass spectrometry (LC–MS). The following applies: 2 µM.
The conditions of series [18]: bacteroides fragilis, 12 h, 2 µM.
Description: The drug is tested on Bacteroides fragilis strain: DS-208 for biotransformation. The drug concentrations were measured before and after a 12-h incubation by liquid-chromatography-coupled mass spectrometry (LC–MS)
A short description of series [19]: The drug is tested on Ruminococcus torques strain: ATCC27756 for biotransformation. The drug concentrations were measured before and after a 12-h incubation by liquid-chromatography-coupled mass spectrometry (LC–MS). The series is classed as ADME. The following applies: 2 µM. Also on record: dose 2 uM, timepoint 0 vs 12 hours.

`CN1C(C(=O)Nc2ccccn2)=C(O)c2sccc2S1(=O)=O` [TENOXICAM]: the “Bacterial Biotransformation” value in [1], in series [2], in series [3], in [4], in [5] and in [6] was “Compound NOT metabolized” throughout. Further, the “Bacterial Biotransformation” value in series [7], in series [8], in series [9], in series [10], in [11] and in [12] was “Compound NOT metabolized” in each case. Also, the “Bacterial Biotransformation” value in series [13], in [14] and in series [15] was “Compound NOT metabolized” in each case.

`O=C(O)CCC(=O)O.O=C(O[C@H]1CN2CCC1CC2)N1CCc2ccccc2[C@@H]1c1ccccc1` [SOLIFENACIN SUCCINATE]: the “Bacterial Biotransformation” value in [1], in series [2], in series [3], in series [4], in [5] and in series [6] was “Compound NOT metabolized” in each case. The “Bacterial Biotransformation” value in series [16], in series [7], in [17], in [9], in series [18] and in series [10] was “Compound NOT metabolized” in each case. Further, the “Bacterial Biotransformation” value in series [11], in series [13], in [19], in series [14] and in series [15] was “Compound NOT metabolized” in each case.

In the case of `CCc1cccc2c3c([nH]c12)C(CC)(CC(=O)O)OCC3` (configuration not stated) [ETODOLAC], the “Bacterial Biotransformation” value in series [1], in series [2], in series [3], in [4], in series [5] and in [6] was “Compound NOT metabolized” throughout. Further, the “Bacterial Biotransformation” value is listed as “Compound NOT metabolized” in [16]; “Compound NOT metabolized” in [17]; “Compound metabolized” in [8]; “Compound NOT metabolized” in series [9]; “Compound metabolized” in [18]; “Compound NOT metabolized” in series [10]. Also, the “Bacterial Biotransformation” value in [11], in [13], in series [19], in [14] and in [15] was “Compound NOT metabolized” in each case.

On to `O=C(NCc1ccccc1)OCCO` [BURAMATE], for which the “Bacterial Biotransformation” value in series [1], in series [2], in series [3], in [4], in [5] and in series [6] was “Compound NOT metabolized” each time. Further, the “Bacterial Biotransformation” value in series [16], in series [7], in series [17], in [8], in series [9] and in series [18] was “Compound NOT metabolized” throughout. The “Bacterial Biotransformation” value in series [10], in series [11], in [12], in [13], in series [19] and in series [14] was “Compound NOT metabolized” throughout. The “Bacterial Biotransformation” value in series [15] is recorded as “Compound NOT metabolized”.

Turning to `CC(CN(C)C)CN1c2ccccc2CCc2ccccc21.O=C(O)/C=C\C(=O)O` (configuration not stated) [TRIMIPRAMINE MALEATE], the “Bacterial Biotransformation” value in series [1], in series [2], in series [3], in [4], in series [5] and in series [6] was “Compound NOT metabolized” throughout. For the same compound, the “Bacterial Biotransformation” value in series [16], in [7], in series [9], in series [18], in [10] and in series [11] was “Compound NOT metabolized” in each case. The “Bacterial Biotransformation” value in series [12], in series [13], in [19], in [14] and in [15] was “Compound NOT metabolized” each time.

Regarding `C[C@@H](c1ncncc1F)[C@](O)(Cn1cncn1)c1ccc(F)cc1F` [VORICONAZOLE], the “Bacterial Biotransformation” value in series [1], in series [2], in [3], in series [4], in [5] and in [6] was “Compound NOT metabolized” in each case. The “Bacterial Biotransformation” value is given as “Compound NOT metabolized” in [16]; “Compound NOT metabolized” in series [17]; “Compound NOT metabolized” in series [9]; “Compound metabolized” in [18]; “Compound NOT metabolized” in series [10]; “Compound NOT metabolized” in series [11]. The “Bacterial Biotransformation” value in series [12] is “Compound metabolized”; in series [13] it was “Compound NOT metabolized”; in series [19], “Compound NOT metabolized”; in [14] it was “Compound NOT metabolized”; in series [15] it was “Compound NOT metabolized”.

(Values after ChEMBL document CHEMBL5303573, “Mapping human microbiome drug metabolism by gut bacteria and their genes” (Nature, 2019).)
